Patent US12195470B2, “7-phenoxy-N-(3-azabicyclo[3.2.1]octan-8-yl-6,7-dihydro-5H-pyrrolo[1,2-b][1,2,4]triazol-2-amine derivatives and related compounds as gamma- secretase modulators for the treatment of alzheimer's disease” (Hoffmann-La Roche Inc., priority 2018, dated 2025)

Biological target: γ-secretase (Homo sapiens, UniProt P49768)
Test: Cellular γ-secretase assay (inhibition of Aβ42 secretion, AlphaLisa)
Assay type: cell-based
Conditions: human neuroglioma H4 cells overexpressing human APP695 Swedish double mutation, 24 h compound incubation
Description: 2.1) Assay Procedure: Cellular γ-Secretase Assay Human neuroglioma H4 cells overexpressing human APP695 with the Swedish double mutation (K595N/M596L) were plated at 30,000 cells/well/100 μL in 96-well plates in IMDM containing 10% FCS, 0.2 mg/L Hygromycin B and incubated at 37° C., 5% CO2. 3-4 h post plating, compounds are a diluted in media and 50 μL is added as 1.5-fold concentrate to achieve the final concentration. Compound incubation is performed for 24 h. Final doses typically range from 4 μM down to 0.0013 μM in half-log steps resulting in an eight-point dose response curve. Appropriate controls using vehicle only and reference compound were applied to this assay. The final concentration of Me2SO was 0.4%. After incubation at 37° C., 5% CO2, the supernatant was subjected to quantification of secreted Aβ42 by the means of an AlphaLisa® assay kit (Human Amyloid beta 1-42 Kit, Perkin Elmer Inc.). 20 μL of the cell culture supernatant was transferred to an assay plate. Then 10 μL of a mixture of the AlphaLisa® coupled capture antibody and the biotinylated detection antibody was added and incubated for 3 h at RT while softly shaking the assay plate. After a further addition of 20 μL of the Donor beads the assay plate was incubated for 30 min at RT and constant shaking without exposure to direct light. The assay plate was then read on a Paradigm AlphaLisa® Reader using the build-in program with excitation at 680 nm and emission at 570 nm. The measured signals were then used to calculate IC50 values for inhibition of Aβ42 secretion by nonlinear regression fit analysis using XLfit 5.3 software (from IDBS Ltd).

| SMILES | IC50 [nM] |
| --- | --- |
| Cc1cc(N2C[C@H]3CC[C@@H](C2)[C@@H]3Nc2nc3n(n2)CC[C@@H]3Oc2ccc(Cl)cc2)ncn1 (single isomer, unassigned) [Example 28] | 71.4 |
| Cc1cc(N2C[C@H]3CC[C@@H](C2)[C@@H]3Nc2nc3n(n2)CC[C@H]3Oc2cc(F)cc(F)c2)ncn1 (single isomer, unassigned) [Example 39] | 15.6 |
| COc1cc(N2C[C@H]3CC[C@@H](C2)[C@@H]3Nc2nc3n(n2)CC[C@H]3Oc2cc(F)cc(F)c2)cnn1 (single isomer, unassigned) [Example 1] | 12.8 |
| Cc1cc(N2C[C@H]3CC[C@@H](C2)[C@@H]3Nc2nc3n(n2)CCC[C@H]3Oc2ccc(F)cc2F)ncn1 (single isomer, unassigned) [Example 37] | 21.6 |
| Cc1cc(N2C[C@H]3CC[C@@H](C2)[C@@H]3Nc2nc3n(n2)CCC[C@@H]3Oc2cc(F)cc(Cl)c2)cnn1 (single isomer, unassigned) [Example 14] | 62.7 |
| COc1cc(N2C[C@H]3CC[C@@H](C2)[C@@H]3Nc2nc3n(n2)CC[C@@H]3Oc2cc(F)cc(F)c2)cnn1 (single isomer, unassigned) [Example 2] | 73.8 |
| Cc1cc(N2C[C@H]3CC[C@@H](C2)[C@@H]3Nc2nc3n(n2)CC[C@@H]3Oc2cccc(Cl)c2)ncn1 (single isomer, unassigned) [Example 30] | 51.9 |
| COc1cc(N2C[C@H]3CC[C@@H](C2)[C@@H]3Nc2nc3n(n2)CCC[C@H]3Oc2cc(F)cc(F)c2)cnn1 (single isomer, unassigned) [Example 9] | 10.6 |
| COc1cc(N2C[C@H]3CC[C@@H](C2)[C@@H]3Nc2nc3n(n2)CCC[C@H]3Oc2ccccc2Cl)cnn1 (single isomer, unassigned) [Example 25] | 15.7 |
| Cc1cc(N2C[C@H]3CC[C@@H](C2)[C@@H]3Nc2nc3n(n2)CCCC[C@@H]3Oc2ccc(F)c(F)c2F)ncn1 (single isomer, unassigned) [Example 62] | 65.8 |
